According to patent US9686988B2, “Pesticidal compounds based on arylthiosulfonamide derivatives” (Syngenta Participations AG, priority 2012, dated 2017):

What was measured:
Assay type in all cases: in vivo
Diabrotica balteata [1] = assay: Diabrotica balteata (corn rootworm), sprayed maize sprouts; conditions: 96 h, application rate of 200 ppm, 4 days after infestation, L2 larvae
Experimental: Diabrotica balteata, (Corn Rootworm)
Maize sprouts, placed on an agar layer in 24-well microtiter plates were treated with aqueous test solutions prepared from 10′000 ppm DMSO stock solutions by spraying. After drying, the plates were infested with L2 larvae (6 to 10 per well). The samples were assessed for mortality 4 days after infestation.

Heliothis virescens = Heliothis virescens (tobacco budworm), eggs on artificial diet; conditions: 120 h, application rate of 200 ppm, egg mortality, larval mortality, growth inhibition 5 days after infestation
Experimental: Heliothis virescens (Tobacco Budworm):
Eggs (0-24 h old) were placed in 24-well microtiter plates on artificial diet and treated with aqueous test solutions prepared from 10′000 ppm DMSO stock solutions by pipetting. The samples were assessed for egg mortality, larval mortality and growth inhibition 5 days after infestation. Control of Heliothis virescens by a test sample is noted when at least one of egg mortality, larval mortality and growth inhibition is better than the untreated sample.

Spodoptera littoralis = Spodoptera littoralis (Egyptian cotton leaf worm), cotton leaf disc spray test; conditions: foliar, 72 h, application rate of 200 ppm, mortality, anti-feedant effect, growth inhibition 3 days after infestation, L1 larvae
Experimental: Spodoptera littoralis (Egyptian Cotton Leaf Worm)
Cotton leaf discs were placed on agar in 24-well microtiter plates and sprayed with aqueous test solutions prepared from 10′000 ppm DMSO stock solutions. After drying the leaf discs were infested with five L1 larvae. The samples were assessed for mortality, anti-feedant effect, and growth inhibition 3 days after infestation. Control of Spodoptera littoralis by a test sample is noted when at least one of mortality, anti-feedant effect, and growth inhibition is better than the untreated sample.

Plutella xylostella = Plutella xylostella (diamond back moth), L2 larvae on artificial diet; conditions: 120 h, application rate of 200 ppm, mortality and growth inhibition 5 days after infestation
Experimental: Plutella xylostella (Diamond Back Moth):
24-well microtiter plates with artificial diet were treated with aqueous test solutions prepared from 10′000 ppm DMSO stock solutions by pipetting. After drying, the plates were infested with L2 larvae (10 to 15 per well). The samples were assessed for mortality and growth inhibition 5 days after infestation. Control of Plutella xyllostella by a test sample is noted when at least one of mortality and growth inhibition is better than the untreated sample.

Thrips tabaci = Thrips tabaci (onion thrips), sunflower leaf disc spray test; conditions: foliar, 144 h, application rate of 200 ppm, mortality 6 days after infestation, mixed ages
Experimental: Thrips tabaci (Onion Thrips):
Sunflower leaf discs were placed on agar in 24-well microtiter plates and sprayed with aqueous test solutions prepared from 10′000 ppm DMSO stock solutions. After drying the leaf discs were infested with a thrips population of mixed ages. The samples were assessed for mortality 6 days after infestation.

Diabrotica balteata [2] = assay: Diabrotica balteata (corn rootworm), L2 larvae on artificial diet; conditions: 120 h, application rate of 200 ppm, mortality and growth inhibition 5 days after infestation
Experimental: Diabrotica balteata (Corn Rootworm):
24-well microtiter plates with artificial diet were treated with aqueous test solutions prepared from 10′000 ppm DMSO stock solutions by pipetting. After drying, the plates were infested with L2 larvae (6 to 10 per well). The samples were assessed for mortality and growth inhibition 5 days after infestation. Control of Diabrotica balteata by a test sample is noted when at least one of mortality and growth inhibition is better than the untreated sample.

Tetranychus urticae = Tetranychus urticae (two-spotted spider mite), bean leaf disc spray test; conditions: foliar, 192 h, application rate of 200 ppm, mortality (mobile stages) 8 days after infestation, mixed ages
Experimental: Tetranychus urticae (Two-Spotted Spider Mite):
Bean leaf discs on agar in 24-well microtiter plates were sprayed with aqueous test solutions prepared from 10′000 ppm DMSO stock solutions. After drying the leaf discs were infested with a mite population of mixed ages. The samples were assessed for mortality (mobile stages) 8 days after infestation.

Myzus persicae = Myzus persicae (green peach aphid), sunflower leaf disc spray test; conditions: foliar, 144 h, read-out: mortality of Myzus persicae
Experimental: Myzus persicae (Green Peach Aphid):
Sunflower leaf discs were placed on agar in a 24-well microtiter plate and sprayed with aqueous test solutions prepared from 10′000 ppm DMSO stock solutions. After drying, the leaf discs were infested with an aphid population of mixed ages. The samples were assessed for mortality 6 days after infestation.

CCNS(=O)(=O)CSc1ccc(C2=CSC(c3cc(Cl)cc(Cl)c3)(C(F)(F)F)C2)cc1Br (stereo not shown) [Compound D2, 1-[2-bromo-4-[2-(3,5-dichlorophenyl)-2-(trifluoromethyl)-3H-thiophen-4-yl]phenyl]sulfanyl-N-ethyl-methanesulfonamide]
≥ 80%: mortality at 200 ppm (Diabrotica balteata [1]) | pest or weed control at 200 ppm (Heliothis virescens) | pest or weed control at 200 ppm (Spodoptera littoralis) | pest or weed control at 200 ppm (Plutella xylostella)

C#CCNS(=O)(=O)CSc1ccc(C2=NO[C@@](c3cc(Cl)cc(Cl)c3)(C(F)(F)F)C2)cc1Br [Compound B5, 1-[2-bromo-4-[(5S)-5-(3,5-dichlorophenyl)-5-(trifluoromethyl)-4H-isoxazol-3-yl]phenyl]sulfanyl-N-propargyl-methanesulfonamide]
≥ 80%: pest or weed control at 200 ppm (Heliothis virescens) | pest or weed control at 200 ppm (Thrips tabaci) | pest or weed control at 200 ppm (Diabrotica balteata [2]) | pest or weed control at 200 ppm (Spodoptera littoralis) | pest or weed control at 200 ppm (Plutella xylostella) | pest or weed control at 200 ppm (Tetranychus urticae)

CC(C)NS(=O)(=O)CSc1ccc(C2=NO[C@@](c3cc(Cl)cc(Cl)c3)(C(F)(F)F)C2)cc1Br [Compound B4, 1-[2-bromo-4-[(5S)-5-(3,5-dichlorophenyl)-5-(trifluoromethyl)-4H-isoxazol-3-yl]phenyl]sulfanyl-N-isopropyl-methanesulfonamide]
≥ 80%: mortality at 200 ppm (Myzus persicae) | pest or weed control at 200 ppm (Heliothis virescens) | pest or weed control at 200 ppm (Thrips tabaci) | pest or weed control at 200 ppm (Diabrotica balteata [2]) | pest or weed control at 200 ppm (Spodoptera littoralis) | pest or weed control at 200 ppm (Plutella xylostella) | pest or weed control at 200 ppm (Tetranychus urticae)

NS(=O)(=O)CS(=O)(=O)c1ccc(C2=NOC(c3cc(Cl)cc(Cl)c3)(C(F)(F)F)C2)cc1Br (stereo not shown) [Compound A4, [2-bromo-4-[5-(3,5-dichlorophenyl)-5-(trifluoromethyl)-4H-isoxazol-3-yl]phenyl]sulfonylmethanesulfonamide]
≥ 80%: pest or weed control at 200 ppm (Heliothis virescens) | pest or weed control at 200 ppm (Diabrotica balteata [2]) | pest or weed control at 200 ppm (Spodoptera littoralis) | pest or weed control at 200 ppm (Plutella xylostella) | pest or weed control at 200 ppm (Tetranychus urticae)

O=S(=O)(CSc1ccc(C2=NO[C@@](c3cc(Cl)cc(Cl)c3)(C(F)(F)F)C2)cc1Br)NCC(F)(F)F [Compound B2, 1-[2-bromo-4-[(5S)-5-(3,5-dichlorophenyl)-5-(trifluoromethyl)-4H-isoxazol-3-yl]phenyl]sulfanyl-N-(2,2,2-trifluoroethyl)-methanesulfonamide]
≥ 80%: pest or weed control at 200 ppm (Heliothis virescens) | pest or weed control at 200 ppm (Thrips tabaci) | pest or weed control at 200 ppm (Diabrotica balteata [2]) | pest or weed control at 200 ppm (Spodoptera littoralis) | pest or weed control at 200 ppm (Plutella xylostella) | pest or weed control at 200 ppm (Tetranychus urticae)

CCN(CC)S(=O)(=O)CSc1ccc(C2=CSC(c3cc(Cl)cc(Cl)c3)(C(F)(F)F)C2)cc1Br (stereo not shown) [Compound D1, 1-[2-bromo-4-[2-(3,5-dichlorophenyl)-2-(trifluoromethyl)-3H-thiophen-4-yl]phenyl]sulfanyl-N,N-diethyl-methanesulfonamide]
≥ 80%: pest or weed control at 200 ppm (Tetranychus urticae)

CCNS(=O)(=O)CSc1ccc(C2=NOC(c3cc(Cl)cc(Cl)c3)(C(F)(F)F)C2)cc1Br (stereo not shown) [Compound A3, 1-[2-bromo-4-[5-(3,5-dichlorophenyl)-5-(trifluoromethyl)-4H-isoxazol-3-yl]phenyl]sulfanyl-N-ethyl-methanesulfonamide]
≥ 80%: mortality at 200 ppm (Myzus persicae) | pest or weed control at 200 ppm (Heliothis virescens) | pest or weed control at 200 ppm (Thrips tabaci) | pest or weed control at 200 ppm (Diabrotica balteata [2]) | pest or weed control at 200 ppm (Spodoptera littoralis) | pest or weed control at 200 ppm (Plutella xylostella) | pest or weed control at 200 ppm (Tetranychus urticae)

CCNS(=O)(=O)CSc1ccc(C2=NO[C@@](c3cc(Cl)cc(Cl)c3)(C(F)(F)F)C2)cc1Br [Compound B1, 1-[2-bromo-4-[(5S)-5-(3,5-dichlorophenyl)-5-(trifluoromethyl)-4H-isoxazol-3-yl]phenyl]sulfanyl-N-ethyl-methanesulfonamide]
≥ 80%: mortality at 200 ppm (Myzus persicae) | pest or weed control at 200 ppm (Heliothis virescens) | pest or weed control at 200 ppm (Thrips tabaci) | pest or weed control at 200 ppm (Diabrotica balteata [2]) | pest or weed control at 200 ppm (Spodoptera littoralis) | pest or weed control at 200 ppm (Plutella xylostella) | pest or weed control at 200 ppm (Tetranychus urticae)

O=S(=O)(CS(=O)(=O)c1ccc(C2=NOC(c3cc(Cl)cc(Cl)c3)(C(F)(F)F)C2)cc1Br)NC1CC1 (stereo not shown) [Compound B6, 1-[2-bromo-4-[5-(3,5-dichlorophenyl)-5-(trifluoromethyl)-4H-isoxazol-3-yl]phenyl]sulfonyl-N-cyclopropyl-methanesulfonamide]
≥ 80%: pest or weed control at 200 ppm (Heliothis virescens) | pest or weed control at 200 ppm (Thrips tabaci) | pest or weed control at 200 ppm (Diabrotica balteata [2]) | pest or weed control at 200 ppm (Spodoptera littoralis) | pest or weed control at 200 ppm (Plutella xylostella) | pest or weed control at 200 ppm (Tetranychus urticae)

NS(=O)(=O)CSc1ccc(C2=NOC(c3cc(Cl)cc(Cl)c3)(C(F)(F)F)C2)cc1Br (stereo not shown) [Compound A1, [2-bromo-4-[5-(3,5-dichlorophenyl)-5-(trifluoromethyl)-4H-isoxazol-3-yl]phenyl]sulfanylmethanesulfonamide]
≥ 80%: pest or weed control at 200 ppm (Heliothis virescens) | pest or weed control at 200 ppm (Thrips tabaci) | pest or weed control at 200 ppm (Diabrotica balteata [2]) | pest or weed control at 200 ppm (Spodoptera littoralis) | pest or weed control at 200 ppm (Plutella xylostella) | pest or weed control at 200 ppm (Tetranychus urticae)

O=S(=O)(CSc1ccc(C2=NO[C@@](c3cc(Cl)cc(Cl)c3)(C(F)(F)F)C2)cc1Br)NC1CC1 [Compound B3, 1-[2-bromo-4-[(5S)-5-(3,5-dichlorophenyl)-5-(trifluoromethyl)-4H-isoxazol-3-yl]phenyl]sulfanyl-N-cyclopropyl-methanesulfonamide]
≥ 80%: pest or weed control at 200 ppm (Heliothis virescens) | pest or weed control at 200 ppm (Thrips tabaci) | pest or weed control at 200 ppm (Diabrotica balteata [2]) | pest or weed control at 200 ppm (Spodoptera littoralis) | pest or weed control at 200 ppm (Plutella xylostella) | pest or weed control at 200 ppm (Tetranychus urticae)

CCN(CC)S(=O)(=O)CSc1ccc(C2=NOC(c3cc(Cl)cc(Cl)c3)(C(F)(F)F)C2)cc1Br (stereo not shown) [Compound A2, 1-[2-bromo-4-[5-(3,5-dichlorophenyl)-5-(trifluoromethyl)-4H-isoxazol-3-yl]phenyl]sulfanyl-N,N-diethyl-methanesulfonamide]
≥ 80%: pest or weed control at 200 ppm (Heliothis virescens) | pest or weed control at 200 ppm (Thrips tabaci) | pest or weed control at 200 ppm (Diabrotica balteata [2]) | pest or weed control at 200 ppm (Spodoptera littoralis) | pest or weed control at 200 ppm (Plutella xylostella) | pest or weed control at 200 ppm (Tetranychus urticae)
